{"source": "patent US10709668B2", "about": "“Sprinkle formulations of acamprosate” (priority 2015, dated 2020)", "origin": "cited, not measured here", "key": {"[1]": {"conditions": "humans"}, "[2]": {"conditions": "subjects with autism and fragile x syndrome (WO 2010093859)"}}, "data": [{"smiles": "CC(=O)NCCCS(=O)(=O)O", "note": "[acamprosate, 3-(Acetylamino)propylsulfonic acid]", "values": [{"measurement": "Oral bioavailability", "setting": "[1]", "result": "about 11%"}, {"measurement": "Improvement in primary outcomes (CGI-I, CGI-S)", "setting": "[2]", "result": "marked improvements"}]}]}
